pEC50: −log10 of the molar value.
Columns and labels:
Plasmodium falciparum [1] = assay: NOVARTIS: Inhibition of Plasmodium falciparum W2 (drug-resistant) proliferation in erythrocyte-based infection assay; format: functional, organism-based; conditions: Plasmodium falciparum, W2; read-out: EC50
[2] = NOVARTIS: Cytotoxicity against human hepatocellular carcinoma cell line (Huh7); format: toxicity, cell-based, Huh-7; conditions: Huh7 cells (hepatocellular carcinoma cell line)
Plasmodium falciparum [3] = assay: NOVARTIS: Inhibition of Plasmodium falciparum 3D7 (drug-susceptible) proliferation in erythrocyte-based infection assay; format: functional, organism-based; conditions: Plasmodium falciparum, 3D7

SMILES | pEC50 (Plasmodium falciparum [1]) | CC50 [2] | pEC50 (Plasmodium falciparum [3])
CCCNC1=C(N(C(C)=O)c2ccc(C)cc2)C(=O)c2ccccc2C1=O | 7.88 | 4330 nM | 7.89
OCCCNc1cc(-c2ccnc(Nc3cccc(Cl)c3)n2)ccn1 | 6.73 | 269 nM | 6.63
CC(C)CNC(=O)c1ccc(OC2CCN(CC3CCCCC3)CC2)c(Cl)c1 | 6.89 | 14800 nM | 6.49
CCCCN1C(=O)/C(=C/N(C(=O)CC)c2ccccc2)SC1=S | < 6.07 | > 10000 nM | < 6.16
COC(=O)c1[nH]c2ccc(Cl)cc2c1NC(=O)C(C)N1CCN(C2CCCCC2)CC1 (centres undefined) | < 4.90 | > 100000 nM | 5.11
O=C(O)Cn1cnc2nc3n(c2c1=O)CCC3 | 5.62 | > 100000 nM | < 4.98
O=C1N(Cc2cc3ccccc3s2)CC2CN(Cc3ccccc3)CCN12 (centres undefined) | 6.43 | > 10000 nM | 6.36
Cc1ccc(-n2c(=S)sc3c(=O)n(-c4ccccc4)c(SCC(=O)c4ccccc4)nc32)cc1C | 5.75 | > 10000 nM | < 5.90
COC(=O)[C@@H]1C[C@@H](NC(=O)c2ccc(OC)cc2OC)CN1Cc1ccc(C(F)(F)F)cc1 | 6.80 | > 100000 nM | 6.46
CCCOC(=O)C1=C(C)NC2=C(C(=O)CC(c3ccc(OC)cc3)C2)C1c1ccccc1Cl (centres undefined) | 7.66 | > 100000 nM | 7.57
COc1cc2c(c(OC)c1CN1CCN(c3ccccc3)CC1)C(=O)c1ccccc1C2=O | 6.78 | > 10000 nM | 6.88
COc1cccc(C(=O)NC(c2ccc(Cl)cc2)c2cc(Cl)c3cccnc3c2O)c1 (centres undefined) | 6.57 | > 100000 nM | 5.64
N#Cc1ccccc1Cn1nc(-c2cccnc2)oc1=O | 5.62 | > 100000 nM | < 4.90
N#CCSc1nc2ccccc2c2nc(CCc3c[nH]c4ccccc34)nn12 | 5.41 | 25400 nM | 5.41
Cc1nc(-c2ccccc2)nc(C(=O)N2CCN(C(=O)NC3CCCCC3)C(C)C2)c1C(=O)OC(C)C (centres undefined) | 7.38 | > 100000 nM | 7.07
CCCS(=O)(=O)N1CCC(CO)(Cc2ccccc2C(F)(F)F)CC1 | 6.16 | > 10000 nM | 5.90
CCCn1c(=O)c2[nH]c(C3CCCC3)nc2n(CCC)c1=O [1,3-DIPROPYL-8-CYCLOPENTYLXANTHINE [DPCPX]] | 6.46 | […] | 6.12

SMILES | pEC50 (Plasmodium falciparum [1]) | CC50 [2] | pEC50 (Plasmodium falciparum [3])
c1ccc(OCCOc2ccc(Nc3c4ccccc4nc4ccccc34)cc2)cc1 | 6.46 | 6120 nM | 6.30
CN(C)CCNc1c2c(nc3ccccc13)CCC2 | 6.62 | 61400 nM | 6.24
CCC(=O)Nc1ccc2nc(SCC(=O)Nc3ccc(C(C)=O)cc3)sc2c1 | 5.96 | > 100000 nM | < 4.90
CCC1CCCCN1C(=O)c1cc(-c2ccccc2OC)on1 (centres undefined) | 6.47 | > 10000 nM | < 6.22
O=C(C1CC1)N1CCc2cc(Br)cc(S(=O)(=O)N3CCCC3)c21 | 5.95 | > 100000 nM | 6.03
Fc1ccc2[nH]c3c(NCCN4CCCCC4)ncnc3c2c1 | 6.67 | 23700 nM | 6.81
CC[n+]1c(C=Cc2ccc(Cl)cc2)ccc2ccccc21 | 5.90 | 19500 nM | 5.43
CCCN1CCC(N2C[C@@H](NC3CCN(CCc4ccccc4)CC3)C[C@H]2C(=O)NCCc2ccc3c(c2)OCO3)CC1 | 6.10 | 11100 nM | 7.06
Cc1ccc(-c2cc(-c3cc(Cl)ccc3O)on2)cc1 | 6.33 | > 10000 nM | < 6.10
C=C(Cl)CSc1nnc(CCNC(=O)c2ccc(C)cc2)n1-c1ccc(F)cc1 | 5.13 | > 100000 nM | < 4.90
C=CCNC(=O)c1ccc2c(c1)N=C(c1ccc(F)cc1)N(CCCC)C2 | 5.61 | 16900 nM | 6.72
C=C[C@H]1CN2CC[C@H]1C[C@H]2[C@H](OC(=O)c1cccc([N+](=O)[O-])c1)c1ccnc2ccccc12 | > 7.84 | > 10000 nM | 6.40
c1ccc(N=c2n(-c3ccccc3)c(=Nc3ccccc3)n(-c3ccccc3)c(=Nc3ccccc3)n2-c2ccccc2)cc1 | < 6.33 | > 10000 nM | < 5.87
O=C(Nc1ccc(-c2nc3ccccc3[nH]2)cc1)c1cccc(C(=O)Nc2ccc(-c3nc4ccccc4[nH]3)cc2)n1 | 6.90 | 31700 nM | 6.92
COc1ccc(-n2c(S)nnc2CNc2cccc(C(F)(F)F)c2)cc1 | 5.54 | > 100000 nM | 5.31
O=C(C(Cc1ccc(O)cc1)c1ccccc1)N1CCC(n2c(Cc3ccc(F)cc3)nc3cccnc32)CC1 (centres undefined) | 6.86 | > 100000 nM | 6.45

— ChEMBL document CHEMBL1156829 (Proc Natl Acad Sci U S A, 2008)
